Here are results for ten compounds from publication PMC7619385 (ACS infectious diseases, 2025).

A word on the ΔTm: it is the shift of the melting midpoint relative to a reference.

Where two headings read alike, the source gives them in different places.

In assay [1] the target is NLuc::LmxCLK1 (Leishmania mexicana, UniProt E9AMP2). In words: cell-based. It counts as cell-based. The settings on record: for Target occupancy Run 1 / Target occupancy Run 2 / Target occupancy Average: 10 µM compound, tracer SV366, promastigotes; for Target occupancy Average: mean of two experiments. In short, it runs like this: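 NanoBRET tracer displacement in live cells expressing NLuc-tagged CLK1, test compounds at 10 µM fixed, 1% DMSO final. Acceptor/donor emission (610/460 nm) ratio gives mBRET, converted to blank-corrected probe occupancy (%); probe KD from single-site saturation binding fits.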

The target in assay [2] is T1, LmxCLK1 (Leishmania mexicana, UniProt E9AMP2).
T1 sequence (E9AMP2 1-422): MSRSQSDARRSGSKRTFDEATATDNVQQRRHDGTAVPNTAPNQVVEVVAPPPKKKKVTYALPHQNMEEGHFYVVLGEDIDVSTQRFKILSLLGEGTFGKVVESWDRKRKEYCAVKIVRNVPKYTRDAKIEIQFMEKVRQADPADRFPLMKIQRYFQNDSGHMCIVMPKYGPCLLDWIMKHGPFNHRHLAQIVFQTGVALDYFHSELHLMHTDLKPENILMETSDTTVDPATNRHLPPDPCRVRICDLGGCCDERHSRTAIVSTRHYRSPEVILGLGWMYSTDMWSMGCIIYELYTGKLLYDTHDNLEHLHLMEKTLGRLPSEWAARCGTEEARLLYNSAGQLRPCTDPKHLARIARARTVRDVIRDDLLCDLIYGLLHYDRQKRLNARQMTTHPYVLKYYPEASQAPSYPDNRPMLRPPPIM
The experiment in a line: biochemical. In kind it is binding. The settings on record: DSF, 10 µM compound.

Where [3] appears, read: read-out: Target occupancy Average.
Setting [4] is: read-out: Target occupancy Run 1.
The mark [5] stands for this setting: read-out: Target occupancy Run 2.
Setting [6] is: 2 µM LmxCLK1, Run 1, read-out: ΔTm Run 1.
Setting [7] is: 2 µM LmxCLK1, Run 2, read-out: ΔTm Run 2.
Setting [8] is: 2 µM LmxCLK1, mean of two runs, read-out: ΔTm Average.

`O=c1cc(-c2cccc3c2Sc2ccccc2S3)oc(N2CCOCC2)c1` [KU-55933 (ATM Kinase Inhibitor)]: in assay [1], the “Target occupancy Run 1” value was determined as 4.0%, the “Target occupancy Run 2” value is recorded as -21.9% and the “Target occupancy Average” value is -9.0%. Moreover, in assay [2] (2 µM LmxCLK1, Run 1), the “ΔTm Run 1” value came out at 0.6 °C. For the same compound, the “ΔTm Run 2” value in assay [2] (2 µM LmxCLK1, Run 2) came to 0.2 °C. For the same compound, in assay [2] (2 µM LmxCLK1, mean of two runs), the “ΔTm Average” value worked out at 0.4 °C.

`Cc1cnc(NC(=O)Nc2cc(Br)c(C)cc2OC[C@@H]2CNCCO2)cn1` [LY2603618]: the receptor occupancy at 10 µM in assay [1] (setting [3]) is -11.8%; in assay [1] (setting [4]) it was 7%; in assay [1] (setting [5]) it was -30.5%. In addition, the ΔTm at 10 µM was 0 °C in assay [2] (setting [6]), -0.4 °C in assay [2] (setting [7]) and -0.2 °C in assay [2] (setting [8]).

Turning to `CN(C[C@@H]1COCCO1)S(=O)(=O)Nc1ccc2ccc3ncc(-c4cnn(C)c4)cc3c(=O)c2c1` [MK-2461], the receptor occupancy at 10 µM was -2.7% in assay [1] (setting [3]), -9.3% in assay [1] (setting [4]) and 3.8% in assay [1] (setting [5]). Further, the ΔTm at 10 µM in assay [2] (setting [6]) came to 0 °C; in assay [2] (setting [7]), 0.2 °C; in assay [2] (setting [8]), 0.1 °C.

Consider `O=C(O)[C@]1(Cc2cccc(Nc3nccs3)n2)CC[C@@H](Oc2cccc(Cl)c2F)CC1` [MK-5108 (VX-689)], for which, in assay [1], the “Target occupancy Run 1” value was -2.8%, the “Target occupancy Run 2” value is given as 1.0% and the “Target occupancy Average” value is recorded as -0.9%. In addition, in assay [2] (2 µM LmxCLK1, Run 1), the “ΔTm Run 1” value was -0.1 °C. Further, in assay [2] (2 µM LmxCLK1, Run 2), the “ΔTm Run 2” value is -0.2 °C. In addition, the “ΔTm Average” value in assay [2] (2 µM LmxCLK1, mean of two runs) was -0.1 °C.

Consider `COC(=O)c1ccc2c(c1)NC(=O)/C2=C(\Nc1ccc(N(C)C(=O)CN2CCN(C)CC2)cc1)c1ccccc1` [Nintedanib (BIBF 1120)], for which, in assay [1], the “Target occupancy Run 1” value is listed as -1.8%, the “Target occupancy Run 2” value is recorded as -11.3% and the “Target occupancy Average” value was -6.6%. Also, the “ΔTm Run 1” value in assay [2] (2 µM LmxCLK1, Run 1) turned out to be 0.3 °C. The “ΔTm Run 2” value in assay [2] (2 µM LmxCLK1, Run 2) was 0.2 °C. The “ΔTm Average” value in assay [2] (2 µM LmxCLK1, mean of two runs) was 0.2 °C.

In the case of `COc1cccc2cc(-c3nc([C@H]4CC[C@H](C(=O)O)CC4)n4ncnc(N)c34)[nH]c12` [OSI-027], the receptor occupancy at 10 µM in assay [1] (setting [3]) is -8.9%; in assay [1] (setting [4]), 5.5%; in assay [1] (setting [5]) it was -23.2%. The figures for the ΔTm at 10 µM in assay [2] (setting [6]), in assay [2] (setting [7]) and in assay [2] (setting [8]) were 0.1 °C, -0.4 °C and -0.2 °C, respectively.

With `C#Cc1cccc(Nc2ncnc3cc(OCCOC)c(OCCO)cc23)c1` [OSI-420], in assay [1], the “Target occupancy Run 1” value is recorded as -6.8%, the “Target occupancy Run 2” value was 3.7% and the “Target occupancy Average” value is -1.5%. The “ΔTm Run 1” value in assay [2] (2 µM LmxCLK1, Run 1) was 0.2 °C. In addition, in assay [2] (2 µM LmxCLK1, Run 2), the “ΔTm Run 2” value is 0.1 °C. In assay [2] (2 µM LmxCLK1, mean of two runs), the “ΔTm Average” value turned out to be 0.1 °C.

Turning to `O=C(Nc1ccc(OC(F)(F)F)cc1)c1sccc1NCc1ccnc2ccccc12` [OSI-930], the receptor occupancy at 10 µM in assay [1] (setting [3]) was 0.1%; in assay [1] (setting [4]) it was -0.4%; in assay [1] (setting [5]) it was 0.6%. Besides, the ΔTm at 10 µM in assay [2] (setting [6]) was determined as 0.4 °C; in assay [2] (setting [7]), 0 °C; in assay [2] (setting [8]) it was 0.2 °C.

As to `COc1cccc(-c2cc(=O)c3ccccc3o2)c1N` [PD98059], in assay [1], the “Target occupancy Run 1” value is listed as -16.6%, the “Target occupancy Run 2” value is -0.7% and the “Target occupancy Average” value is recorded as -8.6%. Besides, the “ΔTm Run 1” value in assay [2] (2 µM LmxCLK1, Run 1) was 0.0 °C. Moreover, the “ΔTm Run 2” value in assay [2] (2 µM LmxCLK1, Run 2) is -0.2 °C. In addition, the “ΔTm Average” value in assay [2] (2 µM LmxCLK1, mean of two runs) was -0.1 °C.

For the compound `O=C(NOCC1CC1)c1ccc(F)c(F)c1Nc1ccc(I)cc1Cl` [PD184352 (CI-1040)], in assay [1], the “Target occupancy Run 1” value is -2.3%, the “Target occupancy Run 2” value is reported as -19.9% and the “Target occupancy Average” value is -11.1%. Besides, the “ΔTm Run 1” value in assay [2] (2 µM LmxCLK1, Run 1) turned out to be 0.1 °C. Further, the “ΔTm Run 2” value in assay [2] (2 µM LmxCLK1, Run 2) was 0.1 °C. Further, the “ΔTm Average” value in assay [2] (2 µM LmxCLK1, mean of two runs) came to 0.1 °C.
